Like-named read-outs stand apart in the source and are kept apart here.
What was measured:
rgRSV224 virus = assay: microbe, parasite or virus in culture; assay type: cell-based, respiratory syncytial virus (RSV); settings: read-out: RSV-wt_EC50
Experimental: (§1) Black 96-well clear-bottom microtiter plates (Corning, Amsterdam, The Netherlands) were filled in duplicate using a customized robot system with serial 4-fold dilutions of compound in a final volume of 50 μl culture medium [RPMI medium without phenol red, 10% FBS, 0.04% gentamycin (50 mg/mL) and 0.5% DMSO]. Then, 100 μl of a HeLa cell suspension (5×10^4 cells/mL) in culture medium was added to each well followed by the addition of 50 μl rgRSV224 (MOI=0.02) virus in culture medium using a multidrop dispenser (Thermo Scientific, Erembodegem, Belgium). rgRSV224 virus is an engineered virus that includes an additional GFP gene (Hallak et al, 2000) and was in-licensed from the NIH (Bethesda, Md., USA). Medium, virus- and mock-infected controls were included in each test. Cells were incubated at 37° C. in a 5% CO2 atmosphere. Three days post-virus exposure, viral replication was quantified by measuring GFP expression in the cells by a MSM laser microscope (Tibotec, Beerse, Belgium). The EC50 was defined as the 50% inhibitory concentration for GFP expression. In parallel, compounds were incubated for three days in a set of white 96-well microtitier plates (Corning) and the cytotoxicity of compounds in HeLa cells was determined by measuring the ATP content of the cells using the ATPlite kit (PerkinElmer, Zaventem, Belgium) according to the manufacturer's instructions. The CC50 was defined as the 50% concentration for cytotoxicity.

HeLa cells = assay: Cytotoxicity in HeLa cells, ATP content (ATPlite kit); assay type: cell-based
Experimental: as §1

[1] = human respiratory syncytial virus, HeLa, 72 h
[2] = HeLa cells, three days incubation, ATP content

Row | Compound | EC50 (rgRSV224 virus; [1]) [µM] | TOX-HELA_EC50 (HeLa cells; [2]) [µM] | EC50 (rgRSV224 virus; rgRSV224 in HeLa cells, three days post-virus exposure, GFP expression) [µM] | TOX-HELA_EC50 (HeLa cells) [µM]
1 | CC(C)CCn1c(Cn2c(=O)n(C3CC3)c3ccncc32)nc2nc(C(F)(F)F)ccc21 [Compound 44, 1-cyclopropyl-3-((1-isopentyl-5-(trifluoromethyl)-1H-imidazo[4,5-b]pyridin-2-yl)methyl)-1H-imidazo[4,5-c]pyridin-2(3H)-one] | 0.019 | >98.3603 |  | 
2 | O=c1n(Cc2nc3cc(Cl)cnc3n2CCCCO)c2cnccc2n1C1CC1 [Compound 21, 3-((6-chloro-3-(4-hydroxybutyl)-3H-imidazo[4,5-b]pyridin-2-yl)methyl)-1-cyclopropyl-1H-imidazo[4,5-c]pyridin-2(3H)-one] | 0.0546 | >9.836 |  | 
3 | O=c1n(Cc2nc3cnccc3n2CCCCO)c2cnccc2n1C1CC1 [Compound 35] |  |  | 0.0795 | >98.3603
